# Measured values as given in patent US20110008447A1, “CARRIER COMPRISING NANODIAMOND” (NATIONAL CHIAO TUNG UNIVERSITY, priority 2009, published 2011).
# Key:
# A549 cells [1] = assay: cytoskeleton and nuclei staining, confocal microscope; assay type: cell-based, human; settings: 24 hours, taxol 50 nM
# A549 cells [2] = assay: flow cytometer cell cycle analysis; assay type: cell-based, human; settings: in comparison with non-treated samples, p<0.01
smiles,measurement,setting,value
CC(=O)O[C@H]1C(=O)[C@@]2(C)[C@H]([C@H](OC(=O)c3ccccc3)[C@]3(O)C[C@H](OC(=O)[C@H](O)[C@@H](NC(=O)c4ccccc4)c4ccccc4)C(C)=C1C3(C)C)[C@]1(OC(C)=O)CO[C@@H]1C[C@@H]2O [taxol],mitosis of the cells,A549 cells [1]; carrier 100 μg/mL,significantly enhancing mitosis
same,"effect on microtubules, spindle and chromosomes",A549 cells [1]; carrier or ND 100 μg/mL,"induced polymerization of microtubules, inhibited formation of spindle, and inhibited separation of chromosomes"
same,G1/G0 cell population,A549 cells [2],significantly reduced
